Data as given in patent US20070135406A1, “Diazabicyclononene and tetrahydropyridine derivatives with a new side-chain” (priority 2003, published 2007).

Biological target: T1, human recombinant renin (Homo sapiens, UniProt P00797)
T1 sequence (P00797 67-406): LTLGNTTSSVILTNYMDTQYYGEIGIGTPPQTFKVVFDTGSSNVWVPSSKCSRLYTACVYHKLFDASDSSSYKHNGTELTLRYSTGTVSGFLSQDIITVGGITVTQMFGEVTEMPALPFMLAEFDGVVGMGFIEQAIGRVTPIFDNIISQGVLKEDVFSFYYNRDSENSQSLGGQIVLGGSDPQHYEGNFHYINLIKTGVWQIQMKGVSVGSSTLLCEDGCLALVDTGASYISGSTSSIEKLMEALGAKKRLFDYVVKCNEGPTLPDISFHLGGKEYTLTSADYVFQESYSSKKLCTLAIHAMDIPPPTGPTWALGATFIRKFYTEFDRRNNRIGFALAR
Assay: Inhibition of human recombinant renin (enzymatic in vitro assay, Ang I detected by EIA)
Format: biochemical
Details: human recombinant renin 0.16 ng/mL, synthetic human angiotensin(1-14) 0.5 μM, 37° C. for 3 h
Experimental: Inhibition of Human Recombinant Renin by the Compounds of the Invention The enzymatic in vitro assay was performed in 384well polypropylene plates (Nunc). The assay buffer consisted of 10 mM PBS (Gibco BRL) including 1 mM EDTA and 0.1% BSA. The incubates were composed of 50 μL per well of an enzyme mix and 2.5 μL of renin inhibitors in DMSO. The enzyme mix was premixed at 4° C. and consists of the following components: • human recombinant renin (0.16 ng/mL).synthetic human angiotensin(1-14) (0.5 μM) • hydroxyquinoline sulfate (1 mM) The mixtures were then incubated at 37° C. for 3 h. To determine the enzymatic activity and its inhibition, the accumulated Ang I was detected by an enzyme immunoassay (EIA) in 384well plates (Nunc). 5 μL of the incubates or standards were transferred to immuno plates which were previously coated with a covalent complex of Ang I and bovine serum albumin (Ang I—BSA). […] of Ang I-antibodies in essaybuffer above including 0.01% Tween 20 were added and a primary incubation made at 4° C. overnight The plates were washed 3 times with PBS including 0.01% Tween 20, and then incubated for 2 h at rt with an antirabbit-peroxidase coupled antibody (WA 934, Amersham).

COCCCOc1nccc(CN(C(=O)C2=C(c3ccc(CCCOc4c(F)ccc(F)c4Cl)cc3)C[C@@H]3CC[C@H]2N3)C2CC2)c1C (racemic) [Example 1, (rac.)-(1R*,5S*)-3-{4-[3-(2-Chloro-3,6-difluorophenoxy)propyl]phenyl}-8-azabicyclo[3.2.1]oct-2-ene-2-carboxylic acid cyclopropyl-[2-(3-methoxy-propoxy)-3-methylpyridin-4-ylmethyl]amide]
IC50: 0.79 nM
